#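 Values below derive from 48-hour exposures of cells grown in 96-well plates, with endpoints linearly interpolated between the two concentrations bracketing the appropriate inhibition level. Abbreviation: GI50, concentration required for 50% inhibition of growth.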 Activity calls are given as the source filed them. Rule as the data show it: active = GI50 up to about 1.1 µM and inactive = higher.
# Experiments:
# Test in all cases: DTP human tumour cell line panel, 48 h
# HOP-92 = tested on: HOP-92
# ACHN = tested on: ACHN
# A549 = tested on: A549
# MDA-N = tested on: MDA-N
# Malme-3M = tested on: Malme-3M
# SNB-19 = tested on: SNB-19
# K562 = tested on: K562
# CAKI-1 = tested on: CAKI-1
# MOLT-4 = tested on: MOLT-4
# 786-0 = tested on: 786-0
# A498 = tested on: A498
# OVCAR-5 = tested on: OVCAR-5
# M14 = tested on: M14
# SK-MEL-5 = tested on: SK-MEL-5
# SK-MEL-2 = tested on: SK-MEL-2
# PC-3 = tested on: PC-3
# SK-MEL-28 = tested on: SK-MEL-28
# SNB-75 = tested on: SNB-75
# BT-549 = tested on: BT-549
Structure (SMILES),GI50 (HOP-92),GI50 (ACHN),GI50 (A549),GI50 (MDA-N),GI50 (Malme-3M),GI50 (SNB-19),GI50 (K562),GI50 (CAKI-1),GI50 (MOLT-4),GI50 (786-0),GI50 (A498),GI50 (OVCAR-5),GI50 (M14),GI50 (SK-MEL-5),GI50 (SK-MEL-2),GI50 (PC-3),GI50 (SK-MEL-28),GI50 (SNB-75),GI50 (BT-549)
O=C(/C=C/c1ccc(O)c(O)c1)OCCCc1ccccc1,12.9 µM (inactive),5.32 µM (inactive),14.3 µM (inactive),11.8 µM (inactive),12.1 µM (inactive),15 µM (inactive),21.3 µM (inactive),20.6 µM (inactive),0.946 µM (active),4.39 µM (inactive),16.4 µM (inactive),18.4 µM (inactive),7.78 µM (inactive),13.2 µM (inactive),17.5 µM (inactive),8.85 µM (inactive),15.3 µM (inactive),–,–
CCOC(=O)CNC(=O)c1nc[nH]c1/N=N/N(C)C,–,> 100 µM (inactive),> 100 µM (inactive),–,> 100 µM (inactive),> 100 µM (inactive),> 100 µM (inactive),> 100 µM (inactive),> 100 µM (inactive),> 100 µM (inactive),> 100 µM (inactive),> 100 µM (inactive),> 100 µM (inactive),> 100 µM (inactive),> 100 µM (inactive),–,> 100 µM (inactive),> 100 µM (inactive),–
O=C(CC(=O)N1N=C(N2c3ccccc3Sc3ccccc32)CC1c1ccccc1)Nc1ccccc1Cl (centres undefined),> 100 µM (inactive),> 100 µM (inactive),> 100 µM (inactive),–,–,> 100 µM (inactive),> 100 µM (inactive),> 100 µM (inactive),> 100 µM (inactive),> 100 µM (inactive),> 100 µM (inactive),> 100 µM (inactive),> 100 µM (inactive),> 100 µM (inactive),> 100 µM (inactive),> 100 µM (inactive),> 100 µM (inactive),> 100 µM (inactive),> 100 µM (inactive)
COc1cc(/C=C2/SC(c3ccccc3)N(Cc3ccccc3)C2=O)cc(OC)c1OC (centres undefined),32.8 µM (inactive),44.8 µM (inactive),67 µM (inactive),29.6 µM (inactive),38.4 µM (inactive),> 100 µM (inactive),16.4 µM (inactive),> 100 µM (inactive),14.4 µM (inactive),33.2 µM (inactive),49.1 µM (inactive),80.9 µM (inactive),75.3 µM (inactive),12.1 µM (inactive),47.8 µM (inactive),–,47.1 µM (inactive),–,39 µM (inactive)
COc1ccc2c(c1)C/C(=C\c1cccc3ccccc13)C2=O,–,27.6 µM (inactive),6.89 µM (inactive),–,–,69.2 µM (inactive),2.36 µM (inactive),> 100 µM (inactive),4.89 µM (inactive),15.4 µM (inactive),23.4 µM (inactive),94 µM (inactive),5.97 µM (inactive),4.05 µM (inactive),–,16.2 µM (inactive),3.93 µM (inactive),12.4 µM (inactive),5.26 µM (inactive)
O=C(Nc1ccc(Cl)c(Cl)c1)OCCN1c2ccccc2Sc2ccccc21,> 10 µM (inactive),> 10 µM (inactive),> 10 µM (inactive),> 10 µM (inactive),> 10 µM (inactive),> 10 µM (inactive),> 10 µM (inactive),> 10 µM (inactive),> 10 µM (inactive),> 10 µM (inactive),–,> 10 µM (inactive),> 10 µM (inactive),> 10 µM (inactive),–,> 10 µM (inactive),> 10 µM (inactive),> 10 µM (inactive),> 10 µM (inactive)
O=C1C/C(=C\c2ccccc2)C(=O)c2ccccc2N1,29.9 µM (inactive),25.1 µM (inactive),25.5 µM (inactive),22.9 µM (inactive),17.5 µM (inactive),14.9 µM (inactive),–,18.4 µM (inactive),45.5 µM (inactive),19.5 µM (inactive),18.8 µM (inactive),20 µM (inactive),23.2 µM (inactive),20.3 µM (inactive),28.5 µM (inactive),23.9 µM (inactive),29.5 µM (inactive),–,–
CC(Br)CN1CCOCC1 (centres undefined),> 100 µM (inactive),> 100 µM (inactive),> 100 µM (inactive),–,> 100 µM (inactive),> 100 µM (inactive),50 µM (inactive),> 100 µM (inactive),–,> 100 µM (inactive),> 100 µM (inactive),> 100 µM (inactive),> 100 µM (inactive),> 100 µM (inactive),> 100 µM (inactive),> 100 µM (inactive),> 100 µM (inactive),–,> 100 µM (inactive)
CCC(C)C1=C(O)[N+]2([O-])Oc3ccc(-c4c(O)c(O)c(-c5ccc(O)cc5)c(OC(C)=O)c4OC(C)=O)cc3OC2(C(C)CC)C(=O)N1O (centres undefined),–,> 50 µM (inactive),> 50 µM (inactive),17.1 µM (inactive),> 50 µM (inactive),> 50 µM (inactive),35.4 µM (inactive),> 50 µM (inactive),43.8 µM (inactive),13.7 µM (inactive),> 50 µM (inactive),> 50 µM (inactive),> 50 µM (inactive),> 50 µM (inactive),> 50 µM (inactive),> 50 µM (inactive),> 50 µM (inactive),> 50 µM (inactive),–
COc1cc2c(/C=C3/C(=O)Nc4ccc(Cl)cc43)c(Cl)[nH]c2cc1C,10.6 µM (inactive),0.587 µM (active),0.711 µM (active),–,0.82 µM (active),0.408 µM (active),0.394 µM (active),0.39 µM (active),0.294 µM (active),0.731 µM (active),10.6 µM (inactive),3.27 µM (inactive),0.962 µM (active),0.592 µM (active),0.966 µM (active),0.505 µM (active),0.26 µM (active),0.215 µM (active),0.181 µM (active)
CC(=O)/N=S(/NC(=O)c1ccc(C)cc1)C(Cl)(Cl)Cl (centres undefined),> 100 µM (inactive),41 µM (inactive),> 100 µM (inactive),55.6 µM (inactive),29.6 µM (inactive),94.8 µM (inactive),23.9 µM (inactive),–,25.1 µM (inactive),18 µM (inactive),–,36.2 µM (inactive),15.7 µM (inactive),33.3 µM (inactive),–,> 100 µM (inactive),46.7 µM (inactive),45.3 µM (inactive),–
Cc1ccc([S+]([O-])C[C@](NC(=O)OCc2ccccc2)(Sc2ccccc2)C(F)F)cc1 (some centres undefined),17.8 µM (inactive),20.7 µM (inactive),28.6 µM (inactive),–,21.3 µM (inactive),14.4 µM (inactive),10.2 µM (inactive),21.5 µM (inactive),3.4 µM (inactive),13 µM (inactive),13.5 µM (inactive),31.6 µM (inactive),33.3 µM (inactive),13.3 µM (inactive),27.6 µM (inactive),21.2 µM (inactive),18 µM (inactive),13.2 µM (inactive),16.3 µM (inactive)
Cc1cccc2c3ccc4c(c3n(C)c12)C(=O)C=CC4=O,> 100 µM (inactive),–,> 100 µM (inactive),–,> 100 µM (inactive),> 100 µM (inactive),> 100 µM (inactive),> 100 µM (inactive),35.9 µM (inactive),> 100 µM (inactive),–,–,> 100 µM (inactive),–,> 100 µM (inactive),–,> 100 µM (inactive),> 100 µM (inactive),–
N#Cc1nc(Cc2cccs2)oc1N,> 100 µM (inactive),> 100 µM (inactive),> 100 µM (inactive),> 100 µM (inactive),–,> 100 µM (inactive),> 100 µM (inactive),> 100 µM (inactive),> 100 µM (inactive),> 100 µM (inactive),> 100 µM (inactive),> 100 µM (inactive),> 100 µM (inactive),> 100 µM (inactive),> 100 µM (inactive),> 100 µM (inactive),> 100 µM (inactive),> 100 µM (inactive),–
C/C(=N\Nc1nc2ccccc2n1C)c1ccncn1,0.129 µM (active),0.0266 µM (active),0.128 µM (active),0.929 µM (active),< 0.0385 µM (active),0.65 µM (active),< 0.0152 µM (active),< 0.01 µM (active),< 0.01 µM (active),0.08 µM (active),0.14 µM (active),1.52 µM (inactive),0.0408 µM (active),0.102 µM (active),2.52 µM (inactive),–,0.0378 µM (active),1.87 µM (inactive),5.6 µM (inactive)
O=C(O)CC(O)(c1ccccc1C(=O)O)c1cccc2ccccc12 (centres undefined),> 100 µM (inactive),> 100 µM (inactive),> 100 µM (inactive),–,> 100 µM (inactive),> 100 µM (inactive),> 100 µM (inactive),> 100 µM (inactive),> 100 µM (inactive),> 100 µM (inactive),> 100 µM (inactive),> 100 µM (inactive),> 100 µM (inactive),> 100 µM (inactive),> 100 µM (inactive),–,> 100 µM (inactive),> 100 µM (inactive),–
O=C1CC23CCCCCCCCCCC2(C1)CC(=O)C3 (centres undefined),21.1 µM (inactive),29 µM (inactive),30 µM (inactive),–,24.6 µM (inactive),22.9 µM (inactive),27.5 µM (inactive),–,18.7 µM (inactive),32.6 µM (inactive),–,23.2 µM (inactive),16.6 µM (inactive),17.4 µM (inactive),19.5 µM (inactive),–,38.7 µM (inactive),–,–

# Source: ChEMBL document CHEMBL1201862, “PubChem BioAssay data set” (2004)
